This is an account of results in US12679839B2, “Cyclin-dependent kinase 7 (CDK7) non-covalent inhibitors” (JANSSEN PHARMACEUTICA NV, priority 2020, dated 2026).

Assay [1] addresses T1, CDK7/Cyclin H/MAT-1 complex (Homo sapiens, UniProt P50613).
T1 construct: Human CDK7 (amino acids 1-346); His6 (N); TEV protease cleavage site (N); made in house; host or cells: baculovirus-SF9 insect cells
The assay is described as follows: Flint assay, end-point fluorescence (5 nM CDK7/Cyclin H/MAT-1 complex). Particulars: for IC50: read-out: CDK7 (5 nM) pIC50 (converted). In kind it is biochemical. As to the method:
Human CDK7 (amino acids 1-346) containing an N-terminal His6-tag followed by a tobacco etch virus (TEV) protease cleavage site, human MAT1 (amino acids 1-309) and human cyclin H (amino acids 1-323) were co-expressed in the baculovirus-SF9 insect cell expression system to generate a trimeric complex. Cell pellets were collected 72 h post-infection and were resuspended by Dounce homogenization in 20 mM Hepes-NaOH (pH 8.0), 300 mM NaCl, 10% glycerol, 2 mM dithiothreitol DTT), and 20 mM Imidazole supplemented with cOmplete™ Protease Inhibitor Cocktail (Roche) and 25 U/mL Benzonase® Nuclease HC according to the manufacturer's instructions. Cells were lysed by passing through a Microfluidics M110Y Microfluidizer 3 times at 600 kPa followed by centrifugation at 38,000×g at 4° C. for 1 hour. The supernatant was loaded onto a pre-equilibrated HisTrap HP column and eluted in 20 mM Hepes-NaOH (pH 8.0), 50 mM NaCl, 10% glycerol, 2 mM DTT, and 400 mM Imidazole. The eluate was further purified by gel filtration on a Superdex S200 16/60 column and eluted with 20 mM Hepes-NaOH (pH 7.5), 50 mM NaCl, 10% Glycerol, 2 mM DTT. Fractions containing a trimeric complex of CDK7, cyclin H, and MAT1 in a 1:1:1 ratio were pooled and concentrated to 3 mg/mL in a 10 kDa MWCO concentrator, and diluted to a final concentration of 1.6 mg/mL in 11.1 mM Hepes-NaOH (pH 8.0), 27.8 mM NaCl, 1.1 mM DTT and 50% glycerol.
Compounds with potencies approaching the limit of detection of the assay (IC50≤10 nM) were further assessed in a more sensitive fluorescence end-point assay.
[formula] where νo is the rate in the absence of inhibitor, νmin is the rate at highest inhibitor concentration, and h is the Hill coefficient. Flint Assay (5 nM CDK7/Cyclin H/MAT-1 Complex)
The continuous absorbance assay was converted to an end-point fluorescence assay following the NADH fluorescence signal decrease at the excitation and emission wavelengths of 340 nm and 440 nm, respectively.
Under the same concentrations of substrates and coupling reagents used in the absorbance assay, the fluorescence assay was performed at a reduced concentration of the CDK7/Cyclin H/MAT-1 complex of 5 nM (final concentration) with a reaction time of 24 hours. The percent of inhibition was calculated by the following equation. Percent of inhibition=(Sample−NC)/(PC−NC)*100 where NC is the mean if negative control (reaction without inhibitor), and PC is the mean of positive control (reaction with complete inhibition).
Dosing curves were fitted using the following equation to obtain IC50: Y=Bottom+(Top−Bottom)/(1+10^((log IC50−X)*Hill slope)) where X=log10 of the compound concentration; top and bottom can be defined by PC and NC respectively. Imaging-Based Cellular RNA PolII Ser5 Phosphorylation Assay

In assay [2] the test system is RNA polymerase II Serine 5 phosphorylation (Rpb1 CTD), downstream substrate of CDK7. The assay is described as follows: Imaging-based cellular RNA PolII Ser5 phosphorylation assay in A549 cells. The format is cell-based, human. Particulars: challenged with compound for 3 hours; for IC50: Homo sapiens, A549, 3 h, read-out: pRNA polII Ser5 (A549) pIC50 (converted). The essentials: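 A549 cells seeded 20 h in DMEM with 1% FBS, then exposed to compound for 3 h at 37 °C; fixed, methanol-permeabilized and immunostained for phospho-Rpb1 CTD Ser5, read by automated imaging. Signal normalized to DMSO (high) and 10 μM LDC4297 (low) controls; IC50 from four-parameter fit of % control vs concentration.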

The structures appear in SMILES notation.

T1 sequence (P50613 whole entry, the tested form may be a part): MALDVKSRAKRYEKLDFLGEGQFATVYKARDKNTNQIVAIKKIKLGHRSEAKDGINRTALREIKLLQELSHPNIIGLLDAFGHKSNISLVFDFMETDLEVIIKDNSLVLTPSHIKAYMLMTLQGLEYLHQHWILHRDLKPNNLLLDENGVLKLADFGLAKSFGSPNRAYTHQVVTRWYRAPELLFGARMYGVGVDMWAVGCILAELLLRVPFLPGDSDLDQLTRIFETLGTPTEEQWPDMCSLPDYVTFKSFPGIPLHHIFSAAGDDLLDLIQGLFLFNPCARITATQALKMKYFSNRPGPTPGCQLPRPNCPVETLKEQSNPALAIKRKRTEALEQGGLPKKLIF
T1 sequence (P51946 whole entry partner, the tested form may be a part): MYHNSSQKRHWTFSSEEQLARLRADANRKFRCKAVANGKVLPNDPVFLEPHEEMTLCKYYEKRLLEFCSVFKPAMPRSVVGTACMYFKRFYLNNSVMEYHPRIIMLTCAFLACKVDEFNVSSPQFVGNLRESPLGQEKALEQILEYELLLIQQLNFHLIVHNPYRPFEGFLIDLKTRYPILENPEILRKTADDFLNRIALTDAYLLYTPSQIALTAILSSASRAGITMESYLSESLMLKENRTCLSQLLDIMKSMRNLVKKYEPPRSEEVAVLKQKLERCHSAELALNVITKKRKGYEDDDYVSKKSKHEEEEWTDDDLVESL
T1 sequence (P51948 whole entry partner, the tested form may be a part): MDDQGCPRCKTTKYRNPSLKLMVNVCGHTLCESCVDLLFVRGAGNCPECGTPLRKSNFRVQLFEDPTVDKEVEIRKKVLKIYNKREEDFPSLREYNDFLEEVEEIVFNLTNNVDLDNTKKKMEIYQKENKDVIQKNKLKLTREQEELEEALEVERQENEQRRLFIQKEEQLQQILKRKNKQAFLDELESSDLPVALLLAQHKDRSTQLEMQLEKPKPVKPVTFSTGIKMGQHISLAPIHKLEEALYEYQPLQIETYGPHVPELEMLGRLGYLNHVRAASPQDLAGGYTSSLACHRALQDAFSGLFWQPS

For the compound `C[C@@H]1Cc2cnc(NC[C@@H]3CCOC3)nc2CN1C(=O)[C@H]1CCN(C)C[C@@H]1c1ccccc1` [Compound 62], the “CDK7 (5 nM) pIC50” value in assay [1] came to 8.33. Moreover, the IC50 in assay [2] is 617 nM.
For the compound `C[C@@H]1Cc2cnc(NCc3cc[nH]n3)nc2CN1C(=O)[C@H]1CCN(C)C[C@@H]1c1ccccc1` [Compound 51], the IC50 in assay [1] was 8.32 nM; in assay [2] it was 1320 nM.
With `C[C@H](Nc1ncc2c(n1)CN(C(=O)[C@H]1CCN(C)C[C@@H]1c1ccccc1)[C@H](C)C2)c1ccccn1` [Compound 20], in assay [1], the “CDK7 (5 nM) pIC50” value worked out at 8.19. Also, the IC50 in assay [2] was about 14.1 nM.
In the case of `CN1CC[C@H](C(=O)N2Cc3nc(NC4CCOCC4)ncc3C(C)(C)C2)[C@@H](c2ccccc2)C1` [Compound 193], the “CDK7 (5 nM) pIC50” value in assay [1] is 7.05. In addition, the IC50 in assay [2] was 3630 nM.
Consider `C[C@@H]1Cc2cnc(NCc3ccsc3)nc2CN1C(=O)[C@H]1CCN(C)C[C@@H]1c1ccccc1` [Compound 48], for which, in assay [1], the “CDK7 (5 nM) pIC50” value was found to be 7.92. Besides, the IC50 in assay [2] was 132 nM.
The like results for `C[C@@H]1Cc2cnc(NC3CCOCC3)nc2CN1C(=O)N1CCN(C)C[C@@H]1c1ccccc1` [Compound 204a] were, in that order, 8.17 and 269 nM.
For `CO[C@H]1CC[C@H](Nc2ncc3c(n2)CN(C(=O)[C@H]2CCN(C)C[C@@H]2c2ccc(C)nc2)[C@H](C)C3)CC1` (relative stereo) [Compound 110], the IC50 was 12.9 nM in assay [1] and 437 nM in assay [2].
On to `CC(C)N1CC[C@H](C(=O)N2Cc3nc(NC4CCOCC4)ncc3C[C@H]2C)[C@@H](c2cccc(Cl)c2)C1` (single isomer, unassigned) [Compound 160], for which the “CDK7 (5 nM) pIC50” value in assay [1] stood at 8.58. Besides, in assay [2], the IC50 is 135 nM.
`C[C@@H]1Cc2cnc(N[C@H]3CCC(=O)N(C)C3)nc2CN1C(=O)[C@H]1CCN(C)C[C@@H]1c1ccccc1` (relative stereo) [Compound 7]: the IC50 is 4.47 nM in assay [1] and 933 nM in assay [2].
With `Cc1ccc(CNc2ncc3c(n2)CN(C(=O)[C@H]2CCN(C)C[C@@H]2c2ccccc2)[C@H](C)C3)o1` [Compound 50], in assay [1], the “CDK7 (5 nM) pIC50” value was 8.05. Besides, the IC50 in assay [2] was 72.4 nM.
Turning to `C[C@H]1Cc2cnc(NC3CCOCC3)nc2CN1C(=O)N1CCN(C)C[C@H]1c1cccc(F)c1` (relative stereo) [Compound 212], the IC50 in assay [1] is 4.79 nM; in assay [2], 182 nM.
Take `C[C@@H]1Cc2cnc(NCc3ccn(C)n3)nc2CN1C(=O)[C@@H]1CCN(C)C[C@H]1c1cccc(OC(F)(F)F)c1` (relative stereo) [Compound 127]: the IC50 in assay [1] is 75.9 nM; in assay [2] it was 1510 nM.
The like results for `C[C@H]1Cc2cnc(NC3CCOCC3)cc2CN1C(=O)[C@H]1CCN(C)C[C@@H]1c1ccccc1` (single isomer, unassigned) [Compound 171a] were, in that order, 5.75 nM and 288 nM.
`C[C@@H]1Cc2cnc(N[C@H](C)c3ccn(C)n3)nc2CN1C(=O)[C@H]1CCN(C)C[C@@H]1c1ccccc1` (single isomer, unassigned) [Compound 54]: the values for the IC50 in assay [1] and in assay [2] were 5.13 nM and 123 nM, respectively.
The corresponding values for `C[C@@H]1Cc2cnc(NCc3ccn(C)c3)nc2CN1C(=O)[C@H]1CCN(C)C[C@@H]1c1ccccc1` [Compound 60] are 3.55 nM and 214 nM.
Regarding `C[C@@H]1Cc2cnc(NCc3ccn(C)n3)nc2CN1C(=O)N1CCN(C)C[C@@H]1c1ccccc1` [Compound 213], the “CDK7 (5 nM) pIC50” value in assay [1] was 6.9. Besides, the IC50 in assay [2] was 1380 nM.
On to `C[C@@H]1Cc2cnc(N[C@@H](CO)c3ccccc3)nc2CN1C(=O)[C@H]1CCN(C)C[C@@H]1c1ccccc1` [Compound 71], for which, in assay [1], the “CDK7 (5 nM) pIC50” value turned out to be 8.54. Moreover, the IC50 in assay [2] is 120 nM.
Turning to `CCn1ccc(CNc2ncc3c(n2)CN(C(=O)[C@H]2CCN(C)C[C@@H]2c2ccccc2)[C@H](C)C3)n1` [Compound 58], the “CDK7 (5 nM) pIC50” value in assay [1] was 8.63. Further, in assay [2], the IC50 was 22.9 nM.
`C[C@@H]1Cc2cnc(NC3CCOCC3)nc2CN1C(=O)[C@@H]1CC[C@@H](N(C)C)CN1c1ccccc1` (mixture of isomers) [Compound 167]: in assay [1], the “CDK7 (5 nM) pIC50” value was determined as 6.95. In addition, the IC50 in assay [2] was 5750 nM.
Turning to `C[C@@H]1Cc2cnc(Nc3cnn(C)c3)nc2CN1C(=O)[C@H]1CCN(C)C[C@@H]1c1ccccc1` [Compound 82], in assay [1], the “CDK7 (5 nM) pIC50” value amounted to 8.67. Also, the IC50 in assay [2] is about 46.8 nM.
On to `Cc1ncc(CNc2ncc3c(n2)CN(C(=O)[C@H]2CCN(C)C[C@@H]2c2ccccc2)[C@H](C)C3)[nH]1` [Compound 52], for which the “CDK7 (5 nM) pIC50” value in assay [1] was found to be 7.9. The IC50 in assay [2] is 2450 nM.
Take `CO[C@]1(C)CC[C@@H](Nc2ncc3c(n2)CN(C(=O)[C@H]2CCN(C)C[C@@H]2c2ccccc2)[C@H](C)C3)CC1` [Compound 10]: the “CDK7 (5 nM) pIC50” value in assay [1] turned out to be 8.11. Further, the IC50 in assay [2] is 158 nM.
For the compound `Cc1cn(C)nc1CNc1ncc2c(n1)CN(C(=O)[C@H]1CCN(C)C[C@@H]1c1ccccc1)[C@H](C)C2` [Compound 61], the “CDK7 (5 nM) pIC50” value in assay [1] is on record as 7.97. For the same compound, the IC50 in assay [2] was 912 nM.
As for `CC(C)N1CCN(C(=O)N2Cc3nc(NC4CCOCC4)ncc3C[C@H]2C)[C@@H](c2ccccc2)C1` [Compound 206], the “CDK7 (5 nM) pIC50” value in assay [1] came to 8.19. Besides, in assay [2], the IC50 is 234 nM.
For the compound `C[C@@H]1Cc2cnc(N[C@H]3CC[C@H](O)CC3)nc2CN1C(=O)[C@H]1CCN(C)C[C@@H]1c1ccccc1` [Compound 12], the “CDK7 (5 nM) pIC50” value in assay [1] came out at 8.49. The IC50 in assay [2] is 93.3 nM.
In the case of `Cc1ccc([C@@H]2CN(C)CC[C@H]2C(=O)N2Cc3nc(NC4CCOCC4)ncc3C[C@H]2C)cn1` (relative stereo) [Compound 108], the IC50 in assay [1] is 19.5 nM; in assay [2] it was 1700 nM.
For the compound `CC(C)n1ccc(CNc2ncc3c(n2)CN(C(=O)[C@H]2CCN(C)C[C@@H]2c2ccccc2)[C@H](C)C3)n1` [Compound 66], in assay [1], the “CDK7 (5 nM) pIC50” value is given as 8.56. Moreover, the IC50 in assay [2] was about 28.2 nM.
With `C[C@@H]1Cc2cnc(NCc3cnn(C)c3)nc2CN1C(=O)[C@H]1CCN(C)C[C@@H]1c1ccccc1` [Compound 57], in assay [1], the “CDK7 (5 nM) pIC50” value came out at 7.53. Also, the IC50 in assay [2] was 2950 nM.
Regarding `CO[C@H]1CC[C@H](Nc2ncc3c(n2)CN(C(=O)[C@H]2CCN(C)C[C@@H]2c2ccccc2)[C@H](C)C3)CC1` [Compound 37], the “CDK7 (5 nM) pIC50” value in assay [1] is given as 8.6. Also, the IC50 in assay [2] was about 33.9 nM.
Consider `C[C@@H]1Cc2cnc(N[C@H](CO)c3ccccc3)nc2CN1C(=O)[C@H]1CCN(C)C[C@@H]1c1ccccc1` [Compound 72], for which the “CDK7 (5 nM) pIC50” value in assay [1] is recorded as 8.22. Also, the IC50 in assay [2] is 200 nM.
For `Cc1cc(CNc2ncc3c(n2)CN(C(=O)[C@H]2CCN(C)C[C@@H]2c2ccccc2)[C@H](C)C3)nn1C` [Compound 65], the “CDK7 (5 nM) pIC50” value in assay [1] is 7.33. Besides, in assay [2], the IC50 was 6610 nM.
As for `CO[C@H]1CC[C@H](Nc2cc3c(cn2)C[C@H](C)N(C(=O)[C@@H]2CCN(C)C[C@H]2c2cccc(C)c2)C3)CC1` [Compound 177a], the IC50 in assay [1] was 12.3 nM. Moreover, the “pRNA polII Ser5 (A549) pIC50” value in assay [2] is listed as 6.98.
Consider `Cc1cccc([C@H]2CN(C)CC[C@@H]2C(=O)N2Cc3nc(Nc4cnn(C)c4)ncc3[C@@H]3C[C@@H]32)c1` (relative stereo) [Compound 203], for which the IC50 is 5.37 nM in assay [1] and 148 nM in assay [2].
In the case of `C[C@@H]1Cc2cnc(NC3CCS(=O)(=O)CC3)nc2CN1C(=O)N1CCN(C)C[C@@H]1c1ccccc1` [Compound 214], in assay [1], the “CDK7 (5 nM) pIC50” value is listed as 7.8. Moreover, the IC50 in assay [2] was 3550 nM.
As to `[2H]C([2H])(Nc1ncc2c(n1)CN(C(=O)[C@H]1CCN(C)C[C@@H]1c1ccccc1)[C@H](C)C2)c1ccccc1` [Compound 70], the IC50 in assay [1] was 1.78 nM; in assay [2], 148 nM.
